Data on four compounds can be found in the NIST ThermoML archive (doi:10.1016/j.fluid.2015.02.018).

The conditions of series [1]: DTA; for Normal melting temperature: Crystal.
Series [2] in a line: Molar enthalpy of transition or fusion. To be noted: Crystal; DSC.

± gives the expanded uncertainty stated by the source.

In the case of `COc1ccc2c(c1)c(CC(=O)O)c(C)n2C(=O)c1ccc(Cl)cc1`, the Normal melting temperature in series [1] was determined as 160.5 ± 0.4 °C. Also, the “Molar enthalpy of transition or fusion” value in series [2] is 18 ± 0.359 kcal/mol.
Take `CN1[C@@H](CC(=O)c2ccccc2)CCC[C@H]1C[C@H](O)c1ccccc1.Cl` [(-)-lobeline hydrochloride]: the Normal melting temperature in series [1] came to 193.2 ± 0.4 °C. Besides, the “Molar enthalpy of transition or fusion” value in series [2] was 18.2 ± 0.382 kcal/mol.
The like results for `Cn1c(=O)c2[nH]cnc2n(C)c1=O.Cn1c(=O)c2[nH]cnc2n(C)c1=O.NCCN` [aminophylline] were, in that order, 269.1 ± 0.4 °C and 6.19 ± 0.143 kcal/mol.
In the case of `OCCN1CCN(CCCN2c3ccccc3Sc3ccc(Cl)cc32)CC1` [perphenazine], in series [1], the Normal melting temperature was 93.7 ± 0.4 °C. In series [1] (Glass), the Glass transition temperature was 18.7 ± 0.4 °C. Moreover, the “Molar enthalpy of transition or fusion” value in series [2] came to 10.8 ± 0.239 kcal/mol.
